Earlier results on 4 molecules are cited in publication PMC4096870 (ChemMedChem, 2014).

As usually defined, the pKi is the negative decadic logarithm of the Ki, by convention in mol/L. For orientation: kinact means the rate constant of inactivation at saturating inhibitor. Broadly, the kinact/KI is the maximal inactivation rate divided by the concentration that gives half of it. What is called pIC50 is −log10 of the IC50, conventionally taken in molar units.

pIC50, pKi: −log10 of the molar value.

Regarding `C=CS(=O)(=O)c1ccccc1` [PVS, phenyl vinyl sulfone], on YopH, the pKi was 3.46, the kinact was 0.001 s⁻¹ and the kinact/KI is 2.9 M⁻¹ s⁻¹.
In the case of `C=CS(=O)(=O)Oc1ccccc1` [PVSN, phenyl vinyl sulfonate], on YopH, the pKi was 3.54 and the kinact is 0.01 s⁻¹.
In the case of `O=P(O)(O)C(Br)c1ccccc1` (stereo not drawn) [BBP, α-bromobenzyl phosphonate], on YopH, the pKi was 2.39, the kinact is 0.002 s⁻¹ and the inactivation efficiency (kinact/KI) was 0.49 M⁻¹ s⁻¹.
With `O=C(Oc1cc(O)cc2c1C[C@@H](OC(=O)c1cc(O)c(O)c(O)c1)[C@@H](c1cc(O)c(O)c(O)c1)O2)c1cc(O)c(O)c(O)c1` [epigallocatechin-3,5-digallate], in the data set with LYP, the pIC50 is 7.30.
